Results from patent EP1923473B1, “Bis-diglycolamides (BISDGA) as new extractants for lanthanides [Ln(III)] and actinides [An(III)] from aqueous high-level wastes” (Universidad Autónoma de Madrid, priority 2006, dated 2008).

Tests used:
Assay type in all cases: physicochemical
[1] = Hydrolytic stability; settings: 0.1 mol/L in n-dodecane/1-octanol (95:5)%vol; permanent contact with 3 mol/L nitric acid
Experimental: The organic solutions of the compounds to be tested were prepared and equilibrated with 3 mol/L nitric acid, as has been indicated in sections A) and B).
Then, 700 µL of the equilibrated organic phase were put in vials of an approximate volume of 2 mL and were contacted with 700 µL of 3 mol/L nitric acid. They were stirred vigorously in an oscillating shaker for periods of 7, 15, 24, 36, 42, 50 and 66 days. After each permanent contact period with the nitric acid aqueous phase, the extraction capability of the organic solution was evaluated, taking 600 µL of the corresponding organic phase and contacting it with 600 µL of aqueous phase formed by a 3 mol/L nitric acid solution spiked with 600 Bq of ^152Eu and with 600 Bq of ^241Am. It was stirred vigorously by means of an oscillating shaker for 15 minutes. The separation of the phases was carried out by centrifugation at 5000 rpm. 400 µL of each of the phases were taken for the determination of the concentration of ^152Eu and ^241Am, as in section C).
After the permanent contact periods with the 3 mol/L nitric acid solution, the extraction capability of the organic solutions of both compounds was evaluated with 3 mol/L nitric acid solutions containing 600 Bq of ^152 Eu and 600 Bq of ^241Am.

[2] = Radiolytic stability; settings: 60Co irradiation, 4 kGy/h, up to 1000 kGy
Experimental: The tests of stability against irradiation were carried out in the NAYADE facility at CIEMAT site, with external ^60Co sources with an approximate activity of 5000 Ci, with a homogeneous irradiation flux. The dose rate applied in all the experiments was 4 kGy/h and integrated doses of 250 kGy, 500 kGy, 750 kGy and 1000 kGy were considered. The irradiation device consists of a metal cylinder which is introduced in a rack wherein the ^60CO sources are placed radially, such that the irradiation is homogeneous. The irradiation process is carried out submersing the device in a pool of water with a depth of 4 meters.
Irradiation tests of the solid compound (in the absence of solvent) and of the compound dissolved in the "n-dodecane/1-octanol (95:5)%vol" mixture, equilibrated with 3 mol/L nitric acid, were carried out. The organic solutions were prepared and equilibrated as detailed in the previous sections A) and B).
Once each programmed integrated dose was reached, the extraction capability of the organic samples was evaluated as detailed in section C).
The irradiation of compound 4 in solid form (in the absence of solvent) and dissolved at a 0.1 mol/L concentration in the "n-dodecane/1-octanol 1 (95:5)%vol" mixture, equilibrated with 3 mol/L nitric acid, was carried out. […] After each integrated dose, the extraction capability of Am(III) and Eu(III) was evaluated as described in section C. […]

[3] = Batch extraction from simulated HLLW from the PUREX process, alpha spectrometry; settings: 0.1 mol/L in TPH/1-octanol (90:10)
Description: (§1) The feed solution used for the extraction tests is a simulated solution of an HLLW from the PUREX process, the composition of which is shown in Table 4. Table 4: Composition of the simulated HLLW-PUREX solution used for the extraction tests
(§2) The composition of the HLLW corresponds to a burn-up of 33 GWd/tHM, the generated volume of HLLW being 5000 1/t of fuel. The feed was spiked with ^241Am, ^244Cm, ^252Cf and ^152Eu. Oxalic acid and N-(2-hydroxyethyl)ethylenediaminotriacetate (HEDTA) were also added before the extraction tests.
(§3) 500 µL of the aqueous and organic phases were spiked with 10 µL of a tracer solution containing 241Am, 244Cm, 252Cf and ^152Eu, and were equilibrated for 10 minutes while they were stirred vigorously in a vortex stirrer. After the separation of the phases by centrifugation, 200 µL aliquots of each phase were taken for the determination of the concentration of ^241Am and ^152Eu using a high-purity germanium spectrometer system (EG&G Ortec). The nuclides ^241Am, ^244Cm and ^252Cf were measured by alpha spectrometry with an α-Analyst device of the company Canberra-Packard GmbH, Germany.
(§4) The concentrations of the stable elements were determined by mass spectrometry with an inductively coupled plasma source (ICP-MS) in a DRC Elan 6100 device of Perkin Elmer Sciex. The aqueous phase was measured directly after the appropriate dilution. The organic phase was analyzed after having mineralized the organic matter by microwave acid digestion and subsequent dilution.
(§5) The distribution coefficients were calculated for each element according to section C).
(§6) A 0.1 mol/L solution of compound 4 in the "TPH/1-octanol (90:10)%vol" mixture was prepared. Extraction experiments were carried out with said simulated HLLW in a pure form and also adding oxalic acid and HEDTA to it. These complexing agents have shown to be effective in the DIAMEX process for the complexing of Mo, Zr (H2C2O4) and Pd (HEDTA).
(§7) Extraction experiments were carried out with said simulated HLLW in a pure form and also adding oxalic acid and HEDTA to it.

[4] = Batch extraction from simulated HLLW from the PUREX process, gamma spectrometry; settings: 0.1 mol/L in TPH/1-octanol (90:10)
Description: as §1, §2, §3, §4, §5, §6, §7

[5] = Oxalic acid 0.2 mol/L, HEDTA 0.05 mol/L, TBP 0.5 mol/L
[6] = Oxalic acid 0.2 mol/L, HEDTA 0.05 mol/L, TBP No
[7] = Oxalic acid 0.3 mol/L, HEDTA 0.05 mol/L, TBP 0.5 mol/L
[8] = Oxalic acid 0.3 mol/L, HEDTA 0.05 mol/L, TBP No
[9] = Oxalic acid No, HEDTA No, TBP 0.5 mol/L
[10] = Oxalic acid No, HEDTA No, TBP No

2-Dioctylcarbamoylmethoxy-N-[3-[3-(2-dioctylcarbamoyl-methoxyacetylamino)propoxy]propyl]acetamide [Compound 18]
stability against hydrolysis [1]: very stable against hydrolysis
stability against radiolysis [2]: very stable against radiolysis
Distribution coefficients Am-241, α [3, 5]: 55
Distribution coefficients Am-241, α [3, 6]: 46
Distribution coefficients Am-241, α [3, 7]: 90
Distribution coefficients Am-241, α [3, 8]: 87
Distribution coefficients Am-241, α [3, 9]: 56
Distribution coefficients Am-241, α [3, 10]: 96
Distribution coefficients Am-241, γ [4, 5]: 70
Distribution coefficients Am-241, γ [4, 6]: 100
Distribution coefficients Am-241, γ [4, 7]: 61
Distribution coefficients Am-241, γ [4, 8]: 97
Distribution coefficients Am-241, γ [4, 9]: 65
Distribution coefficients Am-241, γ [4, 10]: 96

2-Dioctylcarbamoylmethoxy-N-[3-[(2-dioctylcarbamoyl-methoxy-acetylamino)methyl]benzyl]acetamide [Compound 4]
stability against hydrolysis [1]: very stable against hydrolysis
stability against radiolysis [2]: very stable against radiolysis
Distribution coefficients Am-241, α [3, 5]: 52
Distribution coefficients Am-241, α [3, 6]: 158
Distribution coefficients Am-241, α [3, 7]: 83
Distribution coefficients Am-241, α [3, 8]: 164
Distribution coefficients Am-241, α [3, 9]: 58
Distribution coefficients Am-241, α [3, 10]: 112
Distribution coefficients Am-241, γ [4, 5]: 63
Distribution coefficients Am-241, γ [4, 6]: 131
Distribution coefficients Am-241, γ [4, 7]: 82
Distribution coefficients Am-241, γ [4, 8]: 141
Distribution coefficients Am-241, γ [4, 9]: 70
Distribution coefficients Am-241, γ [4, 10]: 99
